In the oligonucleotide strings, read from the 5' end, every base follows the letter of its sugar. An asterisk marks phosphorothioate; unmarked linkages are phosphodiester. Other units and linkages are bracketed, terminal groups are in braces. A string of capitals states the bases alone. e = 2'-O-(2-methoxyethyl) (MOE); [5mC] = 5-methylcytosine
Legend:
LN229 cells [1] = test: orthotopic LN229 glioblastoma model, RG5579 alone or with TMZ, survival; format: in vivo; conditions: intratumoral 40 ug RG5579 Day 21, TMZ daily Days 35-41, nude mice
Protocol: RG5579 was tested in an orthotopic model of GBM established with LN229 cells.
Human gliomablastoma-derived LN229 cells growing in culture were trypsinized, counted, and resuspended PBS. The cells express a fluorescent marker that enables monitoring of tumor growth and size during treatment. Approximately 5×10^5 cells, in a volume of 5 ul, were injected into the brain of nude mice on Day 0. Mice were randomized into the following treatment groups, with 8 mice per group: (1) PBS; (2) RG5579; (3) PBS+TMZ; and (4) RG5579+TMZ. On Day 21, mice were given an intratumoral injection of either PBS or 40 ug of RG5579. On Days 35-41, TMZ was administered daily. Survival was monitored, and overall median survival was determined.

LN229 cells [2] = test: orthotopic LN229 glioblastoma model, RG5461 and RG5658 alone or with TMZ, survival; format: in vivo; conditions: single intratumoral dose Day 21 (20 ug RG5658, 50 ug RG5461), TMZ daily Days 35-41, nude mice
Protocol: RG5658 and RG5461 were tested in an orthotopic model of GBM established with LN229 cells. Treatments comprised anti-miR-10b compound alone or in combination with TMZ.
Further testing was performed to evaluate the effects of RG5658 and RG5461 treatment in combination with TMZ. Human gliomablastoma-derived LN229 cells growing in culture were trypsinzed, counted, and resuspended PBS. The cells express a fluorescent marker that enables monitoring of tumor growth and size during treatment. Approximately 5×10^5 cells, in a volume of 5 ul, were injected into the brain of nude mice on Day 0. Mice were randomized into the following treatment groups, with 8 mice per group: (1) PBS; (2) RG5461; (3) RG5658; (4) RG5461+TMZ; (5) RG5658+TMZ; and (6) PBS+TMZ. On Day 21, a single dose of anti-miR-10b compound was administered intratumorally at a dose of 20 ug for RG5658 or 50 ug for RG5461. TMZ was administered daily on each of Days 35-41. Survival was monitored, and overall median survival was determined.

miR-10b [3] = test: PD signature (mRNA of direct miR-10b target genes) in LN229 cells; format: cell-based, human
Protocol: To evaluate the on-target pharmacodynamic effects of treatment with anti-miR-10b, 18 genes that are direct targets of miR-10b were identified by next generation sequencing, and the expression of each of these genes following anti-miR-10b treatment was measured. The 18 genes were: ATXN2, ATXN7, BCL6, BDNF, CRLF3, DAZAP1, DVL3, FXR2, GATAD2A, GCLM, GTF2H1, INO80D, MIEF1, NCOA6, NFE2L1, PDE4A, SMAD2, and TET2.
LN229 cells were treated with a concentration of RG5579 ranging from 2 to 500 nM. After 24 hours, RNA was isolated and the mRNA levels of the 18 genes targeted were measured and averaged to provide a pharmacodynamic signature score (PD Signature Score), represented as Log 2 fold-change (Log 2FC) relative to mock-transfection.
Similar studies were conducted with RG5461 and RG5658, using a PD signature of 10 genes (non-overlapping with the 18-gene PD signature above).

MCF7 cells = test: cell viability assay (CellTiter-Glo), MCF7 cells; format: cell-based; conditions: RNAiMAX transfection, 72 hours
Protocol: (§1) For the cell viability assay, approximately 8,000 cells were plated into each well of a 96-well plate. The following day, cells were transfected with anti-miR-10b compound at doses of 2, 4, 8, 16, 31, 63, 125, 250, and 500 nM, using RNAiMAX™ as the transfection reagent. After 72 hours, cell viability was determined using the CellTiter-Glo® Luminescent Cell Viability Assay. An IC50 was calculated for each compound. The assay was performed using both LN229, U87, MCF7, and HCN2 cells.

[4] = test system: Human gliomablastoma-derived cells; test: initial testing in subcutaneous and orthotopic glioma models, single intratumoral dose; format: in vivo, nude mice; conditions: single dose administered intratumorally
Protocol: Human gliomablastoma-derived cells growing in culture are trypsinzed, counted, and resuspended in a 1:1 mixture of media:growth factor reduced Matrigel. Approximately 10^6 cells, in a volume of 100 ul, are injected subcutaneously into the flank of nude mice. Ten days following subcutaneous tumor implantation, tumor size is measured using calipers, and mice are randomized into treatment groups. Intratumoral (e.g., 5 ug/30 mm^3 tumor), subcutaneous (e.g., 100 mg/kg) or intravenous (e.g., 80 mg/kg) dosing of anti-miR-10b compound begins post-implantation. Tumor size is measured three to five days per week. Final tumor size and weight are measured at the end of the study.
Human gliomablastoma-derived cells growing in culture are trypsinzed, counted, and resuspended PBS. The cells express a fluorescent marker and luciferase insertion that enables monitoring of tumor growth and size via an in vivo imaging system. Approximately 5×10^5 cells, in a volume of 5 ul, are injected into the brain of nude mice. Following intracranial tumor implantation, tumor burden is measured using the IVIS Spectrum In Vivo Imaging System (PerkinElmer), and mice are randomized into treatment groups. […] Tumor burden is measured weekly using the imaging system. Final tumor size and weight are measured at the end of the study.

miR-10b [5] = test: luciferase reporter assay for miR-10b in stable Hela cell line; format: cell-based; conditions: Hela reporter cells transfected with miR-10b; for Luciferase (avg fold change) 1 nM: 1 nM anti-miR-10b compound; for Luciferase (avg fold change) 10 nM: 10 nM anti-miR-10b compound; for Luciferase (avg fold change) 100 nM: 100 nM anti-miR-10b compound
Protocol: In vitro potency was evaluated using a luciferase reporter assay. A luciferase reporter plasmid for miR-10b was designed, with a fully complementary miR-10b binding site in the 3′-UTR of the luciferase gene. A stable Hela cell line expressing this luciferase construct was generated. Cells were transfected to introduce miR-10b, which represses the expression of luciferase from the reporter construct. […] Cells were treated with anti-miR-10b compound at concentrations of 1 nM, 10 nM, and 100 nM. […] As shorter compounds, such as 9-mers, are typically not maximally active in the same assay conditions used for longer compounds, shorter compounds were selected based on maximum inhibition relative to appropriate control compounds. In this way, compounds that are diverse in both length and chemical composition were included in further testing.

U87 cells = test: cell viability assay (CellTiter-Glo), U87 cells; format: cell-based; conditions: RNAiMAX transfection, 72 hours
Protocol: as §1

LN229 cells [6] = test: cell viability assay (CellTiter-Glo), LN229 cells; format: cell-based, human; conditions: RNAiMAX transfection, 72 hours
Protocol: as §1

LN229 cells [7] = test: LN229 Orthotopic Model, summary of in vivo studies (Table 7); set-up: species or system nude mice; conditions: for survival benefit: Intratumoral anti-miR-10b alone, cell reads 'No survival benefit' over three lines
Protocol: Human gliomablastoma-derived cells growing in culture are trypsinzed, counted, and resuspended PBS. The cells express a fluorescent marker and luciferase insertion that enables monitoring of tumor growth and size via an in vivo imaging system. Approximately 5×10^5 cells, in a volume of 5 ul, are injected into the brain of nude mice. Following intracranial tumor implantation, tumor burden is measured using the IVIS Spectrum In Vivo Imaging System (PerkinElmer), and mice are randomized into treatment groups. Intratumoral (e.g., 0.1-500 ug/tumor), subcutaneous (e.g., 100 mg/kg) or intravenous (e.g., 80 mg/kg) dosing of anti-miR-10b compound begins post-implantation. Tumor burden is measured weekly using the imaging system. Final tumor size and weight are measured at the end of the study.
Three candidate therapeutic agents, RG5579, RG5461, and RG5658 were tested in the subcutaneous and orthotopic glioma models. […] The studies were designed to evaluate subcutaneous administration vs. intratumoral administration in subcutaneous in orthotopic models; efficacy of the anti-miR-10b compound alone and in combination with TMZ; and efficacy of a single injection of anti-miR-10b compound vs multiple injections. The research tool compound RG384124 was also tested.
The results of the in vivo studies are summarized in Table 7 and illustrate the substantial improvement of overall survival following treatment with both anti-miR-10b compound and TMZ. RG5461 and RG5658 improved overall median survival in combination with TMZ treatment.

HCN2 cells = test: cell viability assay (CellTiter-Glo), HCN2 cells; format: cell-based; conditions: RNAiMAX transfection, 72 hours
Protocol: as §1

Compound	Median Overall Survival % increase (relative to PBS) (LN229 cells [1])	Median Overall Survival Days (LN229 cells [1])	% increase (relative to PBS) of median survival (LN229 cells [2])	Median Survival (LN229 cells [2])	10-gene PD signature (miR-10b [3])	IC50 (MCF7 cells)	overall survival [4]	tumor growth [4]	Luciferase (avg fold change) 1 nM (miR-10b [5])	Luciferase (avg fold change) 10 nM (miR-10b [5])	Luciferase (avg fold change) 100 nM (miR-10b [5])	IC50 (U87 cells)	IC50 (LN229 cells [6])	median survival increase (LN229 cells [7]; Intratumoral anti-miR-10b + TMZ)	survival benefit (LN229 cells [7])	IC50 (HCN2 cells)
Cn1nnc2c(C(N)=O)ncn2c1=O [TMZ, temozolomide]	27%	61.5 days	22%	67.5 days												
UKAKCMAFGFGFGMUKAK (CAAATUCGGTTCTACAGGGTA; LNA/2'-F/2'-OMe modifications, chemistry not fully specified) [RG5658, anti-miR-10b modified oligonucleotide, 9 linked nucleosides]				56 days	dose-dependent de-repression of a 10-gene PD signature	0.929 µM	did not significantly improve overall survival	consistently delayed tumor growth	1.8 fold change	3.7 fold change	4.7 fold change	0.0456 µM	0.0901 µM	71%	No	
5′-CACAAATTCGGTTCTACAGGGTA-3′ (antisense e[5mC]*eA*e[5mC]*eA*eA*eA*eT*eT*e[5mC]*eG*eG*eT*eT*e[5mC]*eT*eA*e[5mC]*eA*eG*eG*eG*eT*eA) [RG384124, research tool compound; each nucleoside 2′-O-methoxyethyl, each C 5-methylcytosine, each linkage phosphorothioate]						0.0805 µM			2.8 fold change	29.5 fold change	55.6 fold change	0.0313 µM	0.043 µM		No	0.0444 µM

From patent US20220096517A1, “MicroRNA Compounds and Methods for Modulating MIR-10B Activity” (Regulus Therapeutics Inc., priority 2018, published 2022)
